Measurements: patent US6566064B1, “Method for anticipating sensitivity to medicine for osteoporosis” (Nipro Corporation, priority 1999, dated 2003)
Where two headings read alike, the source gives them in different places.

Columns and labels:
[1] = tested on: Japanese females after menopause; test: Change in bone mineral density after 6 month administration of a medicine, by VDR/ER/ApoE4 genotype (Reference Example 1); assay type: in vivo, human; details: for Average therapeutic effect (%) - Anticipated therapeutic effect (%) / Anticipated therapeutic effect value (index of change in bone mineral density) after 6 month administration of a medicine, Average: 6 months; for Anticipated therapeutic effect value (index of change in bone mineral density) after 6 month administration of a medicine, Average: total average on randomly sampled patients, vitamin D 1 μg/day, estrogen 0.312 mg/day, vitamin K2 45 mg/day
Description: In the present invention, the pluralities of remedies for osteoporosis are preferably vitamin D, estrogen, and vitamin K2. Here, the sensitivity to a remedy for osteoporosis means the degree of therapeutic effect of the remedy on osteoporosis. That is, in the case where a medicine A is higher in therapeutic effect than a medicine B in a patient, “the sensitivity of the patient to the medicine A is higher than the sensitivity to the medicine B”. In the present invention, using a change in bone mineral density before and after administration of a medicine as an index of sensitivity, it is defined that the greater the value of “index of change in bone mineral density”−“index of change in anticipated bone mineral density”, the higher is the sensitivity to the medicine.
Blood was collected from 177 Japanese females after menopause randomly selected and blood cells were fractionated and genome DNA was extracted and purified by conventional methods. A VDR gene fragment, an ER gene fragment, and an ApoE gene fragment were separately amplified using the genome DNA as a template and the following primer pairs.
The PCR conditions were denaturation: 94° C., 60 seconds; annealing: 62° C., 60 seconds; elongation: 72° C., 60 seconds (30 cycles) for the VDR gene, denaturation: 94° C., 30 seconds; annealing: 65° C., 30 seconds; elongation: 72° C., 30 seconds (30 cycles) for the ER gene, and denaturation: 94° C., 30 seconds; annealing: 61° C., 40 seconds; elongation: 72° C., 90 seconds (30 cycles) for the ApoE gene. This PCP amplification gave a VDR gene fragment of 7.2 kbp, an ER gene fragment of 1.3 kbp, and an ApoE gene fragment of 244 bp containing polymorphism sites, respectively. After treating a VDR gene amplification reaction mixture with Bsm I, an ER gene amplification reaction mixture with Xba I, and an ApoE gene amplification reaction mixture with Hha I, the reaction mixtures were subjected to agarose gel electrophoresis. In the case where each amplification product was cleaved with the restriction enzyme at the polymorphism site, bands of 4.6 kbp and 2.6 kbp were detected for the VDR amplification product, bands of 900 bp and 400 bp were detected for the ER amplification product, and bands of 72,48, 38, 35, 19, 17, and 15 bp were detected for the ApoE amplification product.
The band of 72 bp was not detected in the case where there is no typE4 (that is, 4(−)). After the electrophoresis, the gels were dyed with ethidium bromide and polymorphisms of the VDR, ER, and ApoE genes were discriminated based on the band patterns and classified into 8 polymorphism groups (Table 3).
(§1) The 177 Japanese females after the polymorphism analysis as described above were each measured for bone mineral density. Then, one of vitamin D, estrogen, and vitamin K2 was administered to the patients for 6 months. The administration amount was 1μg/day for vitamin D, 0.312 mg/day for estrogen, and 45 mg/day for vitamin K2. After 6 months, the bone mineral density was measured again and an index of change in bone mineral density between before and after the administration of a medicine was obtained. A value obtained by subtracting an anticipated value of therapeutic effect of each medicine (total average therapeutic effect on randomly sampled patients; Table 3) from an average index of change in bone mineral density for each genotype was defined as sensitivity to a medicine for each genotype.

[2] = tested on: Japanese females after menopause; test: Change in bone mineral density after administration of a medicine, by VDR/ER/ApoE3 genotype (Reference Example 2); assay type: in vivo, human
Description: as §1
Blood was collected from 167 Japanese females after menopause randomly selected and blood cells were fractionated and genome DNA was extracted and purified by conventional methods. A VDR gene fragment, an ER gene fragment and an ApoE gene fragment were separately amplified using the genome DNA as a template and the same primer pairs as in Reference Example 1 under the same amplification conditions.
After treating the gene amplification reaction mixtures with a restriction enzyme respectively, the reaction mixtures were subjected to agarose gel electrophoresis. In the case where each amplification product was cleaved with the restriction enzyme at the polymorphism site, bands of 4.6 kbp and 2.6 kbp were detected for the VDR amplification product, bands of 900 bp and 400 bp were detected for the ER amplification product, and bands of 72, 48, 38, 35, 19, 17, and 15 bp were detected for the ApoE amplification product.
To detect ApoE3 type alleles, the amplification products were treated with Hha I, and were subjected to agarose electrophoresis gel. After the electrophoresis, the gels were dyed with ethidium bromide and polymorphisms of the ApoE genes were discriminated based on the band patterns and ApoE3 types identified as a combination of bands as below described.
The 8 polymorphism groups were classified (Table 4).

[3] = cited from earlier work
[4] = VDR genotype A (not cleaved with Apa I) compared with genotype a; cited from earlier work
[5] = DBP genotype group of the GC2-2 type compared with the other groups; cited from earlier work

Compound | Average therapeutic effect (%) - Anticipated therapeutic effect (%) ([1]; genotype B(+)x(+)4(−)) | Average therapeutic effect (%) - Anticipated therapeutic effect (%) ([1]; genotype B(+)x(−)4(+)) | Average therapeutic effect (%) - Anticipated therapeutic effect (%) ([1]; genotype B(+)x(−)4(−)) | Average therapeutic effect (%) - Anticipated therapeutic effect (%) ([1]; genotype B(−)X(+)4(−)) | Average therapeutic effect (%) - Anticipated therapeutic effect (%) ([1]; genotype B(−)X(−)4(+)) | Average therapeutic effect (%) - Anticipated therapeutic effect (%) ([1]; genotype B(−)X(−)4(−)) | Anticipated therapeutic effect value (index of change in bone mineral density) after 6 month administration of a medicine, Average [1] [%] | Average therapeutic effect (%) - Anticipated therapeutic effect (%) ([2]; genotype B(+)X(+)3(+)) | Average therapeutic effect (%) - Anticipated therapeutic effect (%) ([2]; genotype B(+)X(−)3(+)) | Average therapeutic effect (%) - Anticipated therapeutic effect (%) ([2]; genotype B(−)X(+)3(+)) | Average therapeutic effect (%) - Anticipated therapeutic effect (%) ([2]; genotype B(−)X(−)3(+)) | Average therapeutic effect (%) - Anticipated therapeutic effect (%) ([2]; genotype B(−)X(−)3(−)) | Average therapeutic effect (%) - Anticipated therapeutic effect (%) ([1]; genotype B(−)X(+)4(+)) | Average therapeutic effect (%) - Anticipated therapeutic effect (%) ([2]; genotype B(+)X(−)3(−)) | Average therapeutic effect (%) - Anticipated therapeutic effect (%) ([2]; genotype B(−)X(+)3(−)) | other results
CC(C)=CCC/C(C)=C/CC/C(C)=C/CC/C(C)=C/CC1=C(C)C(=O)c2ccccc2C1=O [Vitamin K2, vitamin K2] | 1.46 | −0.59 | 1.08 | 0.60 | −2.68 | 0.68 | 0.59 | 3.248 | 1.852 | −0.2083 | −0.8443 | −2.855 | – | – | – | sensitivity to the medicine relative to the other two medicines ([1]; genotypes [B(−) X(−) 4(−)] and [B(+) X(−) 4(−)]): higher than the sensitivity to vitamin D and the sensitivity to estrogen; sensitivity to vitamin K2 ([3]; ApoE4(+) group compared with ApoE4(−) group): significantly lower
vitamin D | −1.75 | −0.27 | −0.66 | 0.37 | 0.56 | 0.05 | 1.15 | −0.6927 | 0.02042 | 1.643 | 0.4017 | 1.498 | 0.34 | 2.234 | −3.114 | Average therapeutic effect (%) - Anticipated therapeutic effect (%) ([1]; genotype B(+)x(+)4(+)): 0.46%; sensitivity to the medicine relative to the other two medicines ([1]; genotype [B(−) X(−) 4(+)]): higher than the sensitivity to vitamin K2 and the sensitivity to estrogen; Average therapeutic effect (%) - Anticipated therapeutic effect (%) ([2]; genotype B(+)X(+)3(−)): 0.461%; sensitivity to vitamin D ([3]; VDR genotype AAB compared with aabb): significantly lower; sensitivity to vitamin D [4]: more sensitive; sensitivity to vitamin D [5]: higher in sensitivity
estrogen | 1.74 | −1.07 | −0.93 | 2.78 | −2.52 | −0.94 | 3.26 | 0.4144 | −0.8961 | 3.741 | −0.07099 | −1.151 | 7.87 | 0.03227 | 4.514 | sensitivity to the medicine relative to the other two medicines ([1]; genotypes [B(−) X(+) 4(−)], [B(−) X(+) 4(+)], [B(+) X(+) 4(−)] and [B(+) X(+) 4(+)]): higher than the sensitivity to vitamin D and the sensitivity to vitamin K2; sensitivity to estrogen ([3]; ER genotype PpXx compared with other genotype groups): significantly higher
